The structures appear in SMILES notation.

The record followed here is ChEMBL document CHEMBL5385881, “Design, synthesis, and discovery of Eudistomin Y derivatives as lysosome-targeted antiproliferation agents” (Eur J Med Chem, 2023).

Assay type in all cases: functional
The subject of test [1] is SGC-7901. Kind of test: Induction of cell cycle arrest in human SGC-7901 cells assessed as accumulation of cells at S phase at 5 uM incubated for 24 hrs by PI staining based flow cytometric analysis (reference value: 40.15%).
For test [2], the system named is MDA-MB-231. Kind of test: Induction of cell cycle arrest in human MDA-MB-231 cells assessed as accumulation of cells at G2/M phase at 5 uM incubated for 24 hrs by PI staining based flow cytometric analysis (reference value: 7.47%). In general terms: A flow cytometer gives signals particle by particle.
For test [3], the system named is SGC-7901. As to the kind of experiment: Induction of cell cycle arrest in human SGC-7901 cells assessed as accumulation of cells at G0/G1 phase at 5 uM incubated for 24 hrs by PI staining based flow cytometric analysis (reference value: 59.67%).
Test [4] has as its system MDA-MB-231. As to the kind of experiment: Induction of cell cycle arrest in human MDA-MB-231 cells assessed as accumulation of cells at S phase at 20 uM incubated for 24 hrs by PI staining based flow cytometric analysis (reference value: 29.80%).
Test [5] deals with MDA-MB-231. As to the kind of experiment: Induction of cell cycle arrest in human MDA-MB-231 cells assessed as accumulation of cells at G2/M phase at 10 uM incubated for 24 hrs by PI staining based flow cytometric analysis (reference value: 7.47%).
For test [6], the system named is MDA-MB-231. Kind of test: Induction of autophagy in human MDA-MB-231 cells assessed as fold increase in Lamp1 level at 5 uM measured after 6 hrs by Western blot analysis relative to control. In general terms: In western blotting, separated proteins are transferred to a membrane and probed.
Test [7] is described as follows: Reduction in Cyclin B1 level in human MDA-MB-231 cells assessed as fold change at 5 uM measured after 72 hrs by Western blot analysis relative to control.
Test [8] is described as follows: Reduction in CDK1 level in human MDA-MB-231 cells assessed as fold change at 10 uM measured after 72 hrs by Western blot analysis relative to control.
The subject of test [9] is MDA-MB-231. As to the kind of experiment: Induction of cell cycle arrest in human MDA-MB-231 cells assessed as accumulation of cells at G0/G1 phase at 20 uM incubated for 24 hrs by PI staining based flow cytometric analysis (reference value: 62.73%).
Test [10] concerns MDA-MB-231. Kind of test: Induction of cell cycle arrest in human MDA-MB-231 cells assessed as accumulation of cells at G2/M phase at 20 uM incubated for 24 hrs by PI staining based flow cytometric analysis (reference value: 7.47%).
Test [11] in a line: Reduction in CDK1 level in human MDA-MB-231 cells assessed as fold change at 5 uM measured after 72 hrs by Western blot analysis relative to control.
Test [12] has as its system SGC-7901. As to the kind of experiment: Induction of cell cycle arrest in human SGC-7901 cells assessed as accumulation of cells at G0/G1 phase at 20 uM incubated for 24 hrs by PI staining based flow cytometric analysis (reference value: 59.67%).
Test [13] concerns SGC-7901. Kind of test: Induction of cell cycle arrest in human SGC-7901 cells assessed as accumulation of cells at S phase at 10 uM incubated for 24 hrs by PI staining based flow cytometric analysis (reference value: 40.15%).
Test [14] is described as follows: Reduction in CDK1 level in human MDA-MB-231 cells assessed as fold change at 15 uM measured after 72 hrs by Western blot analysis relative to control.
The subject of test [15] is SGC-7901. Kind of test: Induction of cell cycle arrest in human SGC-7901 cells assessed as accumulation of cells at S phase at 20 uM incubated for 24 hrs by PI staining based flow cytometric analysis (reference value: 40.15%).
The subject of test [16] is MDA-MB-231. Kind of test: Induction of cell cycle arrest in human MDA-MB-231 cells assessed as accumulation of cells at S phase at 10 uM incubated for 24 hrs by PI staining based flow cytometric analysis (reference value: 29.80%).

As for `COc1ccc(Cn2c3ccccc3c3ccnc(C(=O)c4ccccc4)c32)cc1`, the Activity with SGC-7901 [1] is listed as 40.21%; in the test with MDA-MB-231 [2], 14.71%; in the test on SGC-7901 [3], 41.36%; with MDA-MB-231 [4], 22.49%; in the test with MDA-MB-231 [5] it was 18.53%; in the test on MDA-MB-231 [9], 29.13%. Moreover, the Activity in the test with MDA-MB-231 [10] was determined as 48.37%; with SGC-7901 [12], 6.9%; with SGC-7901 [13], 35.51%; in the test on SGC-7901 [15], 32.61%; with MDA-MB-231 [16] it was 31.51%. For the same compound, the “fold change (FC)” value in the test with MDA-MB-231 [6] was 1.04; in [7], 1.01; in test [8], 0.52; in test [11] it was 0.78; in [14], 0.5.
